Among the data in US20100249071A1, “Modulators of S1P and Methods of Making And Using” (Exelixis, Inc., priority 2009, published 2010) are EC50 values, retold here.

Read-outs that look alike come from different tables or passages of the source.

Test [1] addresses T1, hS1PR5 (hEdg8) membrane protein (Homo sapiens, UniProt Q9H228).
T1 construct: expressed in transfected cells; host or cells: CHO
The test can be described thus: hS1P5R GTPγS binding assay (Assay 4). In kind it is biochemical. The method in brief: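 Membranes (5 μg) from CHO cells expressing hS1PR5, incubated 1 h at room temperature with 30 μM GDP, 0.1 nM [35S]GTPγS, 0.25% fatty acid free BSA and serially diluted compound in pH 7.9 Tris buffer with MgCl2. WGA SPA beads added for another 1 h, then bound [35S]GTPγS counted by scintillation.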
(GTPγS resists hydrolysis and so accumulates on activated G proteins.)

A further test deals with T2, S1P3 (Homo sapiens, UniProt Q99500).
T2 construct: host or cells: HEK293 (transient transfection)
In words: S1P3 Tango β-arrestin recruitment assay in HEK293 cells (Assay 5). The test is classed as cell-based. The settings on record: read-out: Assay 5 EC50. Put shortly: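 HEK293 cells transiently expressing S1P3 fused via TEV-cleavable linker to tTA, with β-arrestin2–TEV, treated 16-18 h at 37 °C with compounds (top 10 μM, 10-point 3-fold, 1% DMSO). Luciferase reporter luminescence normalised to DMSO background and 5 μM S1P control as percent activity; EC50 from concentration-response curves.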
A general note: Activated receptors often draw arrestin, which recruitment assays turn into a signal.

The target in another test is T3, S1P1 (Homo sapiens, UniProt P21453).
T3 construct: host or cells: U2OS
The test can be described thus: Tango β-arrestin recruitment assay in U2OS cells (Assay 2b). The test is classed as cell-based. The method in brief:
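In this agonist-mode Tango assay, U2OS cells carrying S1P1 and the reporter were serum-starved 48 h, then exposed overnight at 37 °C to compound (10 points, 3-fold, top 1 μM, 1% DMSO). β-Lactamase F460/F530 ratio was normalized to 1 μM S1P, and EC50 was fitted.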

Test [2] concerns the target T4, hS1P1R (hEdg1) membrane protein (Homo sapiens, UniProt P21453).
T4 construct: purchased Lonza
The test can be described thus: hS1P1R GTPγS binding assay (Assay 3a). In kind it is biochemical. Put shortly:
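Membranes (4 μg) expressing hS1P1R incubated 1 h at room temperature with 30 μM GDP, 0.1 nM [^35S]GTPγS, 0.25% fatty acid free BSA and serially diluted agonist in Tris-HCl pH 7.9/NaCl/MgCl2/EGTA buffer. Bound [^35S]GTPγS captured on WGA SPA beads (further 1 h) and counted.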

T4 sequence (P21453 whole entry): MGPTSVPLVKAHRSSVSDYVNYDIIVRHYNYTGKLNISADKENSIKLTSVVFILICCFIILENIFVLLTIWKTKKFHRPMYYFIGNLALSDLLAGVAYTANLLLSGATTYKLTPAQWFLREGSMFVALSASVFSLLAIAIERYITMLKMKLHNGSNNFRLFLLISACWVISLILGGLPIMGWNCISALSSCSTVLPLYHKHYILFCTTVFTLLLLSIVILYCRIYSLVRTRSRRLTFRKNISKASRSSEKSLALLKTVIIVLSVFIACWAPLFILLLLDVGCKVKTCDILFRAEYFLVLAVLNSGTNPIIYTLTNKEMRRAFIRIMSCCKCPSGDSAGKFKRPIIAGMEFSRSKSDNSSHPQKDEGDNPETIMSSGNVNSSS
T1 sequence (Q9H228 whole entry): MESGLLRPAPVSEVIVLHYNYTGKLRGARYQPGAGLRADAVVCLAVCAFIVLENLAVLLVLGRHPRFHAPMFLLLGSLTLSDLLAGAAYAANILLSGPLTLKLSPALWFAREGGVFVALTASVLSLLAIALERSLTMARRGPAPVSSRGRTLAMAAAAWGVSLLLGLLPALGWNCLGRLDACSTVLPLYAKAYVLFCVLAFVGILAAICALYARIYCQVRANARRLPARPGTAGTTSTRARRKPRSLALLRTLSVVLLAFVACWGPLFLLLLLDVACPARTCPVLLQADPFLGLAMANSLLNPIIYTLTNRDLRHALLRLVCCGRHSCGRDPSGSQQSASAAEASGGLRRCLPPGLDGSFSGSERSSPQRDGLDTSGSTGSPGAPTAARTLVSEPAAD
T2 sequence (P32121 whole entry): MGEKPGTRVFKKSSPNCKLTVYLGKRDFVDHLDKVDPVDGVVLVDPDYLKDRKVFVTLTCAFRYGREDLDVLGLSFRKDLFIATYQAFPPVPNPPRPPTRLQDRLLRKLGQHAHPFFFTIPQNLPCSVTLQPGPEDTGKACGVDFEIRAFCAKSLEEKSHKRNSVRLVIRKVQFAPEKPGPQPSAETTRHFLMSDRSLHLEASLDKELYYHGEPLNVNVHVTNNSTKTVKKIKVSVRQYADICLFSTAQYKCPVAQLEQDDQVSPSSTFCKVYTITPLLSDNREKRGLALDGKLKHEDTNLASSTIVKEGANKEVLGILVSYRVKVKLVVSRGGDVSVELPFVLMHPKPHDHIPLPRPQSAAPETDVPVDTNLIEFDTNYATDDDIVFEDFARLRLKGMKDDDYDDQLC
T2 sequence (Q99500 whole entry): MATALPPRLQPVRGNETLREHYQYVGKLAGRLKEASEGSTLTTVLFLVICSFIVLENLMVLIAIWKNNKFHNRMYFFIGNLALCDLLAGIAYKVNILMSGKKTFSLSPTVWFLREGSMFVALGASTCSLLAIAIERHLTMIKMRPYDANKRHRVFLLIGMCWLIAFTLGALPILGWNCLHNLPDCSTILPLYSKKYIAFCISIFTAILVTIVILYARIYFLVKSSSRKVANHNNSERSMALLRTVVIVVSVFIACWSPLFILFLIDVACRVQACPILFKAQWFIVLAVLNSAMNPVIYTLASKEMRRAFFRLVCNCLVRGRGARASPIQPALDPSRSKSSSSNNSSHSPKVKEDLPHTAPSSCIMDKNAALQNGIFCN
T3 sequence (P32121 whole entry): as the sequence (P32121 whole entry) above
T3 sequence (P21453 whole entry): as the sequence (P21453 whole entry) above

As usually defined, the EC50 is the concentration at which the effect is half-maximal. As for `CC(C)Oc1ccc(-c2nnc(-c3cc(F)c(OC[C@H](N)COP(=O)(O)O)cc3Cl)s2)cc1Br` [Entry 29, (2S)-2-amino-3-{[4-(5-{3-bromo-4-[(1-methylethyl)oxy]phenyl}-1,3,4-thiadiazol-2-yl)-5-chloro-2-fluorophenyl]oxy}propyl dihydrogen phosphate], the concentration giving a half-maximal response (EC50) was no more than 10 nM in test [1], no more than 250 nM on S1P3, no more than 10 nM at S1P1 (read-out: Assay 2b EC50) and no more than 10 nM in test [2].
With `CC(C)Nc1ccc(-c2nnc(-c3cc(F)c(OC[C@@H](N)[C@@H](C)O)cc3Cl)s2)cn1` [Entry 68, (2R,3R)-3-amino-4-{[5-chloro-2-fluoro-4-(5-{6-[(1-methylethyl)amino]pyridin-3-yl}-1,3,4-thiadiazol-2-yl)phenyl]oxy}butan-2-ol], the EC50 in test [1] is 250 to 2800 nM; at S1P3, greater than 10000 nM; on S1P1 (read-out: Assay 2b EC50), no more than 10 nM; in test [2], 50 to 250 nM.
Consider `CC(C)Nc1ncc(-c2nnc(-c3cc(F)c(OC[C@H](N)CO)cc3Cl)s2)cn1` [Entry 89, (2R)-2-amino-3-{[5-chloro-2-fluoro-4-(5-{2-[(1-methylethyl)amino]pyrimidin-5-yl}-1,3,4-thiadiazol-2-yl)phenyl]oxy}propan-1-ol], for which the 50% effective concentration (EC50) in test [1] was 250 to 2800 nM; at S1P3 it was greater than 10000 nM; at S1P1 (read-out: Assay 2b EC50), 10 to 50 nM; in test [2] it was 50 to 250 nM.
For the compound `CC(C)N(C)c1cc(-c2nnc(-c3cc(F)c(OCC(N)CO)cc3Cl)s2)cc(Cl)n1` (stereo not shown) [Entry 5, 2-amino-3-{[5-chloro-4-(5-{2-chloro-6-[methyl(1-methylethyl)amino]pyridin-4-yl}-1,3,4-thiadiazol-2-yl)-2-fluorophenyl]oxy}propan-1-ol], the concentration for a half-maximal effect (EC50) is 250 to 2800 nM in test [1], no more than 250 nM at S1P3, no more than 10 nM on S1P1 (read-out: Assay 2b EC50) and 10 to 50 nM in test [2].
Consider `Cc1cc(-c2nnc(-c3cc(F)c(OC[C@@H](N)[C@@H](C)O)cc3Cl)s2)cc(NC(C)C)n1` [Entry 97, (2R,3R)-3-amino-4-{[5-chloro-2-fluoro-4-(5-{2-methyl-6-[(1-methylethyl)amino]pyridin-4-yl}-1,3,4-thiadiazol-2-yl)phenyl]oxy}butan-2-ol], for which the 50% effective concentration (EC50) in test [1] is 50 to 250 nM; at S1P3 it was greater than 250 nM; at S1P1 (read-out: Assay 2b EC50) it was no more than 10 nM; in test [2], no more than 10 nM.
As to `Cc1nc(-c2nnc(-c3cc(F)c(OC[C@H](N)[C@@H](C)O)cc3Cl)s2)ccc1NC(C)C` [Entry 103, (2R,3S)-3-amino-4-{[5-chloro-2-fluoro-4-(5-{6-methyl-5-[(1-methylethyl)amino]pyridin-2-yl}-1,3,4-thiadiazol-2-yl)phenyl]oxy}butan-2-ol], the EC50 is 10 to 50 nM in test [1], greater than 250 nM on S1P3, 10 to 50 nM at S1P1 (read-out: Assay 2b EC50) and 10 to 50 nM in test [2].
As to `CC(C)Nc1ccc(-c2nnc(-c3cc(F)c(OC[C@H](N)CO)cc3Cl)s2)cc1Cl` [Entry 43, (2R)-2-amino-3-{[5-chloro-4-(5-{3-chloro-4-[(1-methylethyl)amino]phenyl}-1,3,4-thiadiazol-2-yl)-2-fluorophenyl]oxy}propan-1-ol], the 50% effective concentration (EC50) was 10 to 50 nM in test [1], greater than 10000 nM at S1P3, 50 to 250 nM on S1P1 (read-out: Assay 2b EC50) and no more than 10 nM in test [2].
The matching figures for `CC(C)Oc1ccc(-c2nnc(-c3cc(F)c(OC[C@@H](N)[C@@H](C)O)cc3Cl)s2)cc1Cl` [Entry 74, (2R,3R)-3-amino-4-{[5-chloro-4-(5-{3-chloro-4-[(1-methylethyl)oxy]phenyl}-1,3,4-thiadiazol-2-yl)-2-fluorophenyl]oxy}butan-2-ol]: 10 to 50 nM, greater than 250 nM, no more than 10 nM and no more than 10 nM.
The matching figures for `CC(C)Oc1ncc(-c2nnc(-c3cc(F)c(OCC(N)CO)cc3Cl)s2)cc1Cl` (stereo not shown) [Entry 6, 2-amino-3-{[5-chloro-4-(5-{5-chloro-6-[(1-methylethyl)oxy]pyridin-3-yl}-1,3,4-thiadiazol-2-yl)-2-fluorophenyl]oxy}propan-1-ol]: 250 to 2800 nM, no more than 250 nM, no more than 10 nM and 10 to 50 nM.
The matching figures for `N[C@H](CO)COc1cc(Cl)c(-c2nnc(-c3cccc(Cl)c3)s2)cc1F` [Entry 15, (2R)-2-amino-3-({5-chloro-4-[5-(3-chlorophenyl)-1,3,4-thiadiazol-2-yl]-2-fluorophenyl}oxy)propan-1-ol]: 250 to 2800 nM, greater than 10000 nM, 10 to 50 nM and 250 to 2800 nM.
In the case of `CCCOc1ccc(-c2nnc(-c3cc(F)c(OC[C@H](N)CO)cc3Cl)s2)cc1Cl` [Entry 17, (2R)-2-amino-3-[(5-chloro-4-{5-[3-chloro-4-(propyloxy)phenyl]-1,3,4-thiadiazol-2-yl}-2-fluorophenyl)oxy]propan-1-ol], the EC50 is 50 to 250 nM in test [1], greater than 10000 nM at S1P3, 50 to 250 nM on S1P1 (read-out: Assay 2b EC50) and 10 to 50 nM in test [2].
With “(1S,2R)-2-amino-3-{[5-chloro-2-fluoro- 4-(5-{2-methyl-6-[(1- methylethyl)amino]pyridin-4-yl}-1,3,4- thiadiazol-2-yl)phenyl]oxy}-1- methylpropyl dihydrogen phosphate [Entry 101]”, the half-maximal effective concentration (EC50) in test [1] was no more than 10 nM; on S1P3 it was greater than 250 nM; on S1P1 (read-out: Assay 2b EC50) it was no more than 10 nM; in test [2], no more than 10 nM.
For the compound `CC(C)Oc1ccc(-c2nnc(-c3cc(F)c(OC[C@H](N)CO)cc3Cl)s2)cc1C(N)=O` [Entry 80, 5-[5-(4-{[(2R)-2-amino-3-hydroxypropyl]oxy}-2-chloro-5-fluorophenyl)-1,3,4-thiadiazol-2-yl]-2-[(1-methylethyl)oxy]benzamide], the EC50 in test [1] is 250 to 2800 nM; at S1P3, greater than 10000 nM; on S1P1 (* = rEC50 measured rather than EC50, read-out: Assay 2b rEC50 (relative EC50, cells marked *)) it was 250 to 2800 nM; in test [2], 250 to 2800 nM.
Regarding `CC(C)Cc1ccc(-c2nnc(-c3cc(F)c(OC[C@H](N)CO)cc3Cl)s2)cc1` [Entry 3, (2R)-2-amino-3-[(5-chloro-2-fluoro-4-{5-[4-(2-methylpropyl)phenyl]-1,3,4-thiadiazol-2-yl}phenyl)oxy]propan-1-ol], the EC50 in test [1] was 250 to 2800 nM; on S1P3, greater than 10000 nM; on S1P1 (read-out: Assay 2b EC50) it was 50 to 250 nM; in test [2] it was 250 to 2800 nM.
With `CC(C)Nc1ccc(-c2nnc(-c3cc(F)c(OC[C@H](N)CO)cc3Cl)s2)cn1` [Entry 75, (2R)-2-amino-3-{[5-chloro-2-fluoro-4-(5-{6-[(1-methylethyl)amino]pyridin-3-yl}-1,3,4-thiadiazol-2-yl)phenyl]oxy}propan-1-ol], the EC50 in test [1] was 250 to 2800 nM; at S1P3 it was greater than 10000 nM; at S1P1 (read-out: Assay 2b EC50), 10 to 50 nM; in test [2], 250 to 2800 nM.
For `CC(C)Oc1ccc(-c2nnc(-c3cc(F)c(OC[C@H](N)[C@@H](C)OP(=O)(O)O)cc3Cl)s2)cc1C#N` [Entry 50, (1R,2S)-2-amino-3-{[5-chloro-4-(5-{3-cyano-4-[(1-methylethyl)oxy]phenyl}-1,3,4-thiadiazol-2-yl)-2-fluorophenyl]oxy}-1-methylpropyl dihydrogen phosphate], the EC50 in test [1] is no more than 10 nM; at S1P3, no more than 250 nM; at S1P1 (read-out: Assay 2b EC50), no more than 10 nM; in test [2], no more than 10 nM.
On to `CC(C)Oc1ccc(-c2nnc(-c3cc(F)c(OC[C@@H](N)CO)cc3Cl)s2)cc1Br` [Entry 11, (2S)-2-amino-3-{[4-(5-{3-bromo-4-[(1-methylethyl)oxy]phenyl}-1,3,4-thiadiazol-2-yl)-5-chloro-2-fluorophenyl]oxy}propan-1-ol], for which the EC50 was 10 to 50 nM in test [1], no more than 250 nM at S1P3, no more than 10 nM at S1P1 (read-out: Assay 2b EC50) and no more than 10 nM in test [2].
Regarding `CC(C)Oc1ccc(-c2nnc(-c3cc(F)c(OC[C@H](N)CO)c(Cl)c3)s2)cc1Cl` [Entry 40, (2R)-2-amino-3-{[2-chloro-4-(5-{3-chloro-4-[(1-methylethyl)oxy]phenyl}-1,3,4-thiadiazol-2-yl)-6-fluorophenyl]oxy}propan-1-ol], the half-maximal effective concentration (EC50) was 10 to 50 nM in test [1], greater than 10000 nM at S1P3, 10 to 50 nM at S1P1 (read-out: Assay 2b EC50) and no more than 10 nM in test [2].
Regarding `CCOc1ccc(-c2nnc(-c3cc(F)c(OC[C@H](N)CO)cc3Cl)s2)cc1Cl` [Entry 25, (2R)-2-amino-3-[(5-chloro-4-{5-[3-chloro-4-(ethyloxy)phenyl]-1,3,4-thiadiazol-2-yl}-2-fluorophenyl)oxy]propan-1-ol], the EC50 was 50 to 250 nM in test [1], greater than 10000 nM at S1P3, 10 to 50 nM on S1P1 (read-out: Assay 2b EC50) and 10 to 50 nM in test [2].
